Test results from patent EP4745135A1 (Gluetacs Therapeutics (Shanghai) Co., Ltd., priority 2023, dated 2025).

Tests used:
[1] = biological target: T1, CK1α (Homo sapiens, UniProt P48729+Q96SW2); experiment: Western blot, degradation of substrate protein in hPBMCs; format: cell-based
T1 construct: effects of the compounds of the present disclosure on the expression of target proteins in cells; endogenous in cells; host or cells: human PBMCs (Milecell Biotechnologies)
Procedure: (§1) Conventional Western blot assay was performed to evaluate the effects of the compounds of the present disclosure on the expression of target proteins in cells. • (1) Cell Seeding and Protein Harvesting: Human peripheral blood mononuclear cells (hPBMCs) at a density of 1×10^6 cells/mL were thawed according to the PBMC Recovery Protocol (Milecell Biotechnologies Inc, Shanghai). […] After 24 hours of compounds treatment, cells were harvested and lysed in RIPA protein lysate containing protease inhibitors on ice for 30 min, followed by centrifugation. The supernatant was aspirated as the extracted total cell protein. The protein concentration of the supernatant was determined using the conventional BCA (Bicinchoninic Acid) assay. • (2) To the collected supernatant, 5X SDS sample loading buffer was added, followed by denaturation at 95°C for 5 minutes. The denatured samples were then separated by SDS-PAGE electrophoresis on a polyacrylamide gel, transferred onto a nitrocellulose membrane (0.45 µm NC membrane), blocked with blocking buffer at room temperature for 1 hour, and subjected to antibody incubation and development procedures according to the antibody manufacturer's instructions (Cell Signaling Technology Company).
(§2) Half-Maximal Degradation Concentration value (the drug concentration required for degrading proteins by 50%, abbreviated as DC50) reads method: comparing the grayscale values of Western blot bands from drug-treated samples with those from blank DMSO-treated controls, and identifying the drug concentration range at which the grayscale value is half that of the DMSO-treated control bands.
(§3) DC50 values can be calculated using ImageJ software to measure grayscale values of Western blot bands from drug-treated samples. The concentration-response curve is fitted to estimate the drug concentration corresponding to half the grayscale value.
(§4) Target protein remaining (%) refers to the percentage of target protein remaining in cells after treatment with protein degrader compounds.
(§5) Calculation method for target protein remaining (%): Use ImageJ software to measure grayscale values of Western blot bands from drug (protein degrader)-treated samples. The grayscale value of drug-treated bands is divided by that of internal control protein bands, and the resulting quotient is normalized to obtain the relative percentage of remaining target protein after protein degrader treatment.
(§6) Target protein degradation rate (%) = 1−target protein remaining (%). [formula]

[2] = biological target: T2, IKZF1 (Homo sapiens, UniProt Q13422+Q96SW2); experiment: as above; format: cell-based
T2 construct: effects of the compounds of the present disclosure on the expression of target proteins in cells; endogenous in cells; host or cells: human PBMCs (Milecell Biotechnologies)
T2 sequence (Q13422 whole entry): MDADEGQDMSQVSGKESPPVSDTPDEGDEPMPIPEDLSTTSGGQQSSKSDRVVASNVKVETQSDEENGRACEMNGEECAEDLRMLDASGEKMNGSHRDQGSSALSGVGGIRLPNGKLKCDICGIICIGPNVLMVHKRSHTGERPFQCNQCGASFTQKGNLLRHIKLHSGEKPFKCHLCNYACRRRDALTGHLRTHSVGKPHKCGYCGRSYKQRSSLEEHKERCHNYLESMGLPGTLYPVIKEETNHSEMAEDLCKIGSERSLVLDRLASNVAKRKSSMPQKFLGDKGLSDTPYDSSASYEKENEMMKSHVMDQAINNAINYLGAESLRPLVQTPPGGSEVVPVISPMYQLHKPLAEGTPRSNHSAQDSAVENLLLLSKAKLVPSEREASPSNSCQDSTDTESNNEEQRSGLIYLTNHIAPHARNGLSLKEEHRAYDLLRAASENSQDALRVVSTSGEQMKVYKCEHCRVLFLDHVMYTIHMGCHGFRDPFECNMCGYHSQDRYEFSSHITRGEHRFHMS
T2 sequence (Q96SW2 whole entry): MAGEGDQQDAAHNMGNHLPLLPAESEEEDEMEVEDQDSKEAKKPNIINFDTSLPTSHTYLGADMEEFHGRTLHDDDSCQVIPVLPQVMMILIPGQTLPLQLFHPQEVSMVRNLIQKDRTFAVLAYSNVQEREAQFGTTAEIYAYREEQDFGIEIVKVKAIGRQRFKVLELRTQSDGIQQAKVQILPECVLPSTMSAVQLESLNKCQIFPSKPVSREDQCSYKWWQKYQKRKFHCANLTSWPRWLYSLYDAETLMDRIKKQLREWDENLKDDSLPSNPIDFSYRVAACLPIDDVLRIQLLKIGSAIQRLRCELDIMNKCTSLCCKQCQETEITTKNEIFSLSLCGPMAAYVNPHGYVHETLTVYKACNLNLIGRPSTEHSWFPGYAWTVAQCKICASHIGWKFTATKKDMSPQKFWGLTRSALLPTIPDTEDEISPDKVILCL
T2 sequence (Q16531 whole entry partner): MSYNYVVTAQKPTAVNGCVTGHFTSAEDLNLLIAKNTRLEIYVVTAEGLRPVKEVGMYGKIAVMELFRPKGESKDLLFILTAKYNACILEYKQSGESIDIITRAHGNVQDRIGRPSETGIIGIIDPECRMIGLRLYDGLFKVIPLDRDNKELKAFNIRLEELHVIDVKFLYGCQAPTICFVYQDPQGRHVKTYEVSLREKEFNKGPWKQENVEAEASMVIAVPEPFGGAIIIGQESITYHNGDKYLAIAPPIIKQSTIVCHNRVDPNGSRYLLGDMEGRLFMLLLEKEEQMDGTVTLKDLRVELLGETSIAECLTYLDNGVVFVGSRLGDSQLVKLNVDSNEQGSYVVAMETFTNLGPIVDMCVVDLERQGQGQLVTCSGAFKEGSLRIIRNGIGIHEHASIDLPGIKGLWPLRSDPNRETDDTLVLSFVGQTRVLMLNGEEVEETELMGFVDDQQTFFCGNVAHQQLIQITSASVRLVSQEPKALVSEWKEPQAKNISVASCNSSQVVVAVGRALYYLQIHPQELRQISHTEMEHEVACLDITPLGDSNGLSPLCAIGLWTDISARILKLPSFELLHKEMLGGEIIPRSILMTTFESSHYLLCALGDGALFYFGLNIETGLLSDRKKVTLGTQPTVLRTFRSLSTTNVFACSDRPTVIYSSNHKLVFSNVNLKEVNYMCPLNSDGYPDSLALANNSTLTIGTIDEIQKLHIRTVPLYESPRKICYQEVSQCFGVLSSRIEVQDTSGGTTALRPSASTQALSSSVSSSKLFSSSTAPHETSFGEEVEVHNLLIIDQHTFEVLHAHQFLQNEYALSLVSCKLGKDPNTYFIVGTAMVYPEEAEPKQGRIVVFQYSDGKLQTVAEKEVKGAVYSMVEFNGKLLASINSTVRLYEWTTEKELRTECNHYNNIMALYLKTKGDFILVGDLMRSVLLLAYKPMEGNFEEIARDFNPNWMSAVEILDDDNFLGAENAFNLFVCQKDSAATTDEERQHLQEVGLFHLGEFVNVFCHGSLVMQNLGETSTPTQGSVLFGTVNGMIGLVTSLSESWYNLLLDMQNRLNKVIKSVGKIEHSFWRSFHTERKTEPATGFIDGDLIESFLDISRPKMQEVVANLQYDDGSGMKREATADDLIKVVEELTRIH
Procedure: as §1, §2, §3, §4, §5, §6

[3] = biological target: T3, IKZF2 (Homo sapiens, UniProt Q96SW2+Q9UKS7); experiment: as above; format: cell-based
T3 construct: effects of the compounds of the present disclosure on the expression of target proteins in cells; endogenous in cells; host or cells: human PBMCs (Milecell Biotechnologies)
T3 sequence (Q9UKS7 whole entry): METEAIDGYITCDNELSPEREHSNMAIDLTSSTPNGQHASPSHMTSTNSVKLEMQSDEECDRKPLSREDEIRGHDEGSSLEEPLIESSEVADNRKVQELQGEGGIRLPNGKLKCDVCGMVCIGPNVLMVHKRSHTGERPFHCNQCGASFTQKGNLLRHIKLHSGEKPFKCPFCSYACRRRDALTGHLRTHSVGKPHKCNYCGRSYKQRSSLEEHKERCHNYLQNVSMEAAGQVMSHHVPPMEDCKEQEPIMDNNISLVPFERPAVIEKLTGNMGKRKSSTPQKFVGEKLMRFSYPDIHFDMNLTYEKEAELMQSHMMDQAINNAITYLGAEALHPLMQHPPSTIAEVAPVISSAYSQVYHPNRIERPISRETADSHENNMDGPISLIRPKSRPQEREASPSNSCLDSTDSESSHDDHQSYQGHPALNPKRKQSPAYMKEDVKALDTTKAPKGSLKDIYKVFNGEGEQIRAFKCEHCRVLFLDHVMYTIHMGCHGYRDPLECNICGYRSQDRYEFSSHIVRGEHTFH
T3 sequence (Q96SW2 whole entry): as the sequence (Q96SW2 whole entry) above
T3 sequence (Q16531 whole entry partner): as the sequence (Q16531 whole entry partner) above
Procedure: as §1, §2, §3, §4, §5, §6

[4] = biological target: T4, IKZF3 (Homo sapiens, UniProt Q96SW2+Q9UKT9); experiment: as above; format: cell-based
T4 construct: effects of the compounds of the present disclosure on the expression of target proteins in cells; endogenous in cells; host or cells: human PBMCs (Milecell Biotechnologies)
T4 sequence (Q9UKT9 whole entry): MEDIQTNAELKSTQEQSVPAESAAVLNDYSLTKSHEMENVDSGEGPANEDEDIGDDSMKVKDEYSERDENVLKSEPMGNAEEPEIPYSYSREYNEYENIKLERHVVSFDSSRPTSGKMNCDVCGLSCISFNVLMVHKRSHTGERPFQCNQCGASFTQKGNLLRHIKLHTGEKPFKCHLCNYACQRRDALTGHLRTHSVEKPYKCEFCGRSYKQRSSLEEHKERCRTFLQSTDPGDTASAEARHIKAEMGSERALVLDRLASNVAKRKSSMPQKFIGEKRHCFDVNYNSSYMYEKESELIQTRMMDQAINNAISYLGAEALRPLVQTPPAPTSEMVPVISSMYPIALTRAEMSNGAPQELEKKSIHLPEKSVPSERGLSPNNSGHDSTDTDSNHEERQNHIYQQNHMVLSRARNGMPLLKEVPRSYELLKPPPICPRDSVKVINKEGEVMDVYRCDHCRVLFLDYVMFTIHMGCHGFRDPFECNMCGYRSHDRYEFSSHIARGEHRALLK
T4 sequence (Q96SW2 whole entry): as the sequence (Q96SW2 whole entry) above
T4 sequence (Q16531 whole entry partner): as the sequence (Q16531 whole entry partner) above
Procedure: as §1, §2, §3, §4, §5, §6

[5] = biological target: T5, WEE1 (Homo sapiens, UniProt P30291+Q96SW2); experiment: as above; format: cell-based
T5 construct: effects of the compounds of the present disclosure on the expression of target proteins in cells; endogenous in cells; host or cells: human PBMCs (Milecell Biotechnologies)
T5 sequence (P30291 whole entry): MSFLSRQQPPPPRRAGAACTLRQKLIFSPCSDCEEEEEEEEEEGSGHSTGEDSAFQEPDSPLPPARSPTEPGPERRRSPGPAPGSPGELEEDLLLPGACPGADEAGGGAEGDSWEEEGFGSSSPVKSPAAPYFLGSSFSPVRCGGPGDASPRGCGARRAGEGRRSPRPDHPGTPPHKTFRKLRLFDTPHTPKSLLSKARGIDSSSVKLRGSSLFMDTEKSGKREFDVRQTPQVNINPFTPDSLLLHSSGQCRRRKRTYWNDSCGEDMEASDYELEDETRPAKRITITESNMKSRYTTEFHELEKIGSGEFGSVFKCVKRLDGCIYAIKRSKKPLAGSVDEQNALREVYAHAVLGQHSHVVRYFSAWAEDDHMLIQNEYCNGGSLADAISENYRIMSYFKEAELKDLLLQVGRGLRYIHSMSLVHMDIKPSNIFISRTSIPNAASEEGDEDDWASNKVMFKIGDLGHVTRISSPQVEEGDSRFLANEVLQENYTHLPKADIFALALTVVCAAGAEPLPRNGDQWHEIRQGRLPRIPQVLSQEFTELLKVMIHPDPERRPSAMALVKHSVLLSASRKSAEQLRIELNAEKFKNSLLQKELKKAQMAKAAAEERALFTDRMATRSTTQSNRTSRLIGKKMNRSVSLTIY
T5 sequence (Q96SW2 whole entry): as the sequence (Q96SW2 whole entry) above
T5 sequence (Q16531 whole entry partner): as the sequence (Q16531 whole entry partner) above
Procedure: as §1, §2, §3, §4, §5, §6

[6] = tested on: GSPT1; experiment: as above; format: cell-based, Human
[7] = biological target: T6, human Cereblon WT GST-tagged protein (Homo sapiens, UniProt Q96SW2); experiment: CRBN-binding affinity, HTRF (CEREBLON BINDING kit); conditions: for inhibition at 0.5 µM: read-out: Inhibition Rate at 0.5 µM (%); for inhibition at 2 µM: read-out: Inhibition Rate at 2 µM (%)
T6 construct: purchased CISBIO 64BDCRBNPEH
T6 sequence (Q96SW2 whole entry): as the sequence (Q96SW2 whole entry) above

[8] = Western blot, 24 hours of compound treatment, compounds tested at 50 nM and 500 nM (concentration for the table not stated)
[9] = 24 hours treatment, compounds at 50 nM and 500 nM (concentration behind the class not stated)

T1 sequence (P48729 whole entry): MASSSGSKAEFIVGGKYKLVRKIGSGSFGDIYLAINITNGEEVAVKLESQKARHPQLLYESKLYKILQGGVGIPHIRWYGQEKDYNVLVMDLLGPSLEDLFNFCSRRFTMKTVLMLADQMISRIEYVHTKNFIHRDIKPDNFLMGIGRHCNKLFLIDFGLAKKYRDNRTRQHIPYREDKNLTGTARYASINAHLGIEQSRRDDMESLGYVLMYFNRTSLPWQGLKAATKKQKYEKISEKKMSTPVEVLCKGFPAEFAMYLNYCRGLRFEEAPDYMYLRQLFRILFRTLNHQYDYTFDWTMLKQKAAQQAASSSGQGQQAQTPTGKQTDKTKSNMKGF
T1 sequence (Q96SW2 whole entry): as the sequence (Q96SW2 whole entry) above
T1 sequence (Q16531 whole entry partner): as the sequence (Q16531 whole entry partner) above

Compound | CK1α substrate protein remaining % [1, 8] | IKZF 1 substrate protein remaining % [2, 8] | IKZF2 substrate protein remaining % [3, 8] | IKZF3 substrate protein remaining % [4, 8] | Wee1 substrate protein remaining % [5, 8] | GSPT1 substrate protein remaining % [6, 8] | inhibition at 0.5 µM [7] | inhibition at 2 µM [7] | CK1α substrate protein remaining % [1, 9] | IKZF 1 substrate protein remaining % [2, 9] | IKZF2 substrate protein remaining % [3, 9] | IKZF3 substrate protein remaining % [4, 9] | Wee1 substrate protein remaining % [5, 9] | GSPT1 substrate protein remaining % [6, 9]
O=C1CCC(N2Cc3cc(CN4CCN(c5cc(Cl)ccn5)CC4)ccc3C2=S)C(=O)N1 (stereo not shown) [GT-09218, 3-(5-((4-(4-chloropyridin-2-yl)piperazin-1-yl)methyl)-1-thioxoisoindolin-2-yl)piperidine-2,6-dione] | B (80%< substrate protein remaining %≤ 100%) | B (80%< substrate protein remaining %≤ 100%) | B (80%< substrate protein remaining %≤ 100%) | B (80%< substrate protein remaining %≤ 100%) | B (80%< substrate protein remaining %≤ 100%) | A (0% ≤ substrate protein remaining % ≤ 80%) | 60 to 80% | 80 to 100% |  |  |  |  |  | 
O=C1CCC(N2Cc3cc(CN4CCC(c5ccc(F)cc5)CC4)ccc3C2=S)C(=O)N1 (stereo not shown) [GT-08621, 3-(5-((4-(4-fluorophenyl)piperidin-1-yl)methyl)-1-thioxoisoindolin-2-yl)piperidine-2,6-dione] | B (80%< substrate protein remaining %≤ 100%) | B (80%< substrate protein remaining %≤ 100%) | A (0% ≤ substrate protein remaining % ≤ 80%) | B (80%< substrate protein remaining %≤ 100%) | B (80%< substrate protein remaining %≤ 100%) | A (0% ≤ substrate protein remaining % ≤ 80%) | 53 to 60% | 80 to 100% |  |  |  |  |  | 
O=C1CCC(N2Cc3cc(CN4CCC(n5cnc6cc(F)ccc65)CC4)ccc3C2=S)C(=O)N1 (stereo not shown) [GT-09262, 3-(5-((4-(5-fluoro-1H-benzo[d]imidazol-1-yl)piperidin-1-yl)methyl)-1-thioxoisoindolin-2-yl)piperidine-2,6-dione] |  |  |  |  |  |  | 53 to 60% | 80 to 100% | B (80%< substrate protein remaining %≤ 100%) | B (80%< substrate protein remaining %≤ 100%) | B (80%< substrate protein remaining %≤ 100%) | B (80%< substrate protein remaining %≤ 100%) | B (80%< substrate protein remaining %≤ 100%) | A (0% ≤ substrate protein remaining % ≤ 80%)
O=C1CCC(N2Cc3c(CN4CCN(c5c(F)c(F)nc(F)c5F)CC4)cccc3C2=S)C(=O)N1 (stereo not shown) [GT-08809, 3-(4-((4-(perfluoropyridin-4-yl)piperazin-1-yl)methyl)-1-thioxoisoindolin-2-yl)piperidine-2,6-dione] | B (80%< substrate protein remaining %≤ 100%) | A (0% ≤ substrate protein remaining % ≤ 80%) | A (0% ≤ substrate protein remaining % ≤ 80%) | A (0% ≤ substrate protein remaining % ≤ 80%) | A (0% ≤ substrate protein remaining % ≤ 80%) | A (0% ≤ substrate protein remaining % ≤ 80%) | 53 to 60% | 80 to 100% |  |  |  |  |  | 
O=C1CCC(N2Cc3cc(CN4CCC(c5ccnc(Cl)c5Cl)CC4)ccc3C2=S)C(=O)N1 (stereo not shown) [GT-08475, 3-(5-((4-(2,3-dichloropyridin-4-yl)piperidin-1-yl)methyl)-1-thioxoisoindolin-2-yl)piperidine-2,6-dione] | B (80%< substrate protein remaining %≤ 100%) | B (80%< substrate protein remaining %≤ 100%) | B (80%< substrate protein remaining %≤ 100%) | B (80%< substrate protein remaining %≤ 100%) | B (80%< substrate protein remaining %≤ 100%) | A (0% ≤ substrate protein remaining % ≤ 80%) | 60 to 80% | 80 to 100% |  |  |  |  |  | 
